In PMC10985088, “Synthesis and biological evaluation of echinomycin analogues as potential colon cancer agent” (Scientific Reports, 2024):

Experiments:
MIA PaCa-2 cells = conditions: read-out: IC50 MIA PaCa-2; human pancreatic carcinoma cell, 72 h, mean ± SE (n = 3)
Procedure: With a range of chromophore analogues in hand, their toxicity to SW620 cells was investigated by WST assays.
Basically, the evaluation was performed using methods previously reported by our group[20],[23]. Cytotoxic activities of compounds against MIA PaCa-2 (American Type Culture Collection), SW620 (European Collection of Authenticated Cell Cultures) were measured by WST-8 assay according to manufacturer’s protocol. Briefly, cells (1 × 10^4 cells/well) in a 96-well plate were cultured in medium (for MIA PaCa-2, D-MEM (Wako, Japan) containing 10% fetal bovine serum (Funakoshi, Japan), 100 units/mL penicillin G and 100 µg/mL streptomycin (Wako, Japan), for SW620, RPMI-1640 (Wako, Japan) containing 10% fetal bovine serum, 100 units/mL penicillin G and 100 µg/mL streptomycin) were cultured at 37 °C for 24 h under 5% CO2 atmosphere. Then, cells were treated with test compounds (final DMSO concentration was 1%) at 37 °C for 72 h under 5% CO2 atmosphere. Then, cells were treated with a solution of Cell Counting Kit-8® (Dojindo, Japan) for 3 h. After that, cell viabilities were determined based on the measurement of absorption at 450 nm of the wells by using TECAN Infinite® M200 microplate reader. The results were expressed as a percentage of the negative control (cells treated with DMSO only), and that value was fixed at 100%.

[1] = Hepatic microsomal stability assay, mouse; assay type: in vitro ADME; conditions: microsomes, 1 μM, 0.2 mg/mL microsomes, 37 °C, 30 min
Procedure: (§1) Before investigating the in vivo efficacy of 3, its metabolic stability was evaluated by treatment with human or mouse liver microsomes at 37 °C for 30 min, and the remaining analogues were analyzed by LC–MS/MS (Table 3). […] This means that approximately 67% of 3 was unaffected by human liver microsomes.
(§2) Basically, the analysis was performed using methods previously reported. Disappearance of the parent compound over time was measured by using the amount of drug at time zero as a reference. After 5 min of preincubation, 1 mM NADPH (final concentration, the same applies to the following, NADPH( +)) or 0.1 M phosphate buffer (pH 7.4, NADPH(−))) was added to a mixture containing 1 μM of the test compound, 0.2 mg/mL of human or mouse liver microsomes (Sekisui XenoTech LLC (Kansas City, KS)), 1 mM EDTA and 0.1 M phosphate buffer (pH 7.4) and incubated at 37 °C for 30 min by rotation at 60 rpm. An aliquot of 50 μL of the incubation mixture was sampled and added to 250 μL of chilled acetonitrile/internal standard (IS). After centrifuging for 15 min at 3150×g (4 °C), the supernatants were analyzed by LC–MS/MS. Hepatic microsomal stability (mL/min/kg, CLint) was calculated according to the previous report, using 48.8 and 45.4 mg MS protein/g liver and 25.7 and 87.5 g liver/kg body weight as scaling factors for human and mouse, respectively.
(§3) Basically, the analysis was performed using methods previously reported. An LC-MS8060 instrument equipped with a Shimadzu Nexera series LC system (Shimadzu, Kyoto, Japan) was used. All compounds were analyzed in multi-reaction monitoring mode under electron spray ionization conditions. The analytical column used was a […] C18 MGIII (3 μm × 2.0 mmID × 35 mm; OSAKA SODA, Osaka, Japan) at 50 °C. The gradient mobile phase consisted of 0.1% formic acid in water (mobile phase A,) and 0.1% formic acid in acetonitrile (mobile phase B) at a total flow rate of 1 mL/min. The initial mobile phase composition was 10% B, which was held constant for 0.2 min, increased in a linear fashion to 90% B over 1 min, then held constant for 0.8 min, and finally brought back to the initial condition of 10% B over 0.01 min and re-equilibrated for 1 min. The transitions (precursor ion > product ion) of echinomycin, 3 and IS (methyl testosterone) are 1101.45 > 1053.5 (positive), 1083.5 > 523.95 (negative), and 303.1 > 109.1 (positive), respectively.

SW620 xenograft = SW620 xenograft mouse model; assay type: in vivo; conditions: i.p. 0.04 and 0.4 µg/mouse daily for 10 days, compared to PBS-injected group
Procedure: Since the metabolic stability and identification of the maximum tolerated dose of 3 were confirmed, the effect of 3 on colon cancer progression in vivo was then investigated (Fig. 7). A xenograft model was generated by injecting a suspension of 2 × 10^6 SW620 cells into the backs of nude mice. The doses of the compounds were 0.04 and 0.4 µg/mouse, which correspond to approximately 1.6 and 16 μg/kg, respectively, according to the results obtained in Fig. S1. A solution of 1, 3, or PBS was injected intraperitoneally into each mouse, and tumor sizes were measured each day. […] Of note is the efficacy of tumor growth inhibition with 3.
Figure 7 In vivo anticancer activity of echinomycin and 3 on the SW620 xenograft mice model. Male BALB/C nude mice were administered by intraperitoneal injection with the vehicle, echinomycin and 3, at dosages of 0.04 and 0.4 µg/mice (n = 10 each group), every day for 10 days (a, b). Average tumor volume (c) was measured. Data are expressed as the mean ± standard error ([…]). *Indicates P < 0.05 by Student's t test. The error bars show the s.d. (n = 10).
Basically, the experiments were performed using methods previously reported. […] The tumor size was calculated by the following formula: Tumor size (mm^2) = (major diameter) × (minor diameter).

[2] = Hepatic microsomal stability assay, human; assay type: in vitro ADME; conditions: microsomes, 1 μM, 0.2 mg/mL microsomes, 37 °C, 30 min
Procedure: as §1, §2, §3

[3] = Investigation of maximum tolerated dose (body weight of mice); assay type: in vivo, mouse; conditions: 14 days
Procedure: Toxicity Body weight change is an indicator of systemic toxicity. Accordingly, the body weights of mice intraperitoneally treated with different doses (0.04 and 0.4 µg/mouse) of either 1 or 3 were measured (Fig. S1). […] A blood hematological examination (including nineteen parameters) was also conducted on these mice on Day 14 (Fig. S2). There were no significant changes in almost any of the parameters in the mice treated with either 1 or 3 at doses of 0.04 or 0.4 µg/mouse.

Q: With `CS[C@H]1SC[C@H]2C(=O)N(C)[C@@H](C(C)C)C(=O)OC[C@@H](NC(=O)c3cnc4ccccc4n3)C(=O)N[C@@H](C)C(=O)N(C)[C@@H]1C(=O)N(C)[C@@H](C(C)C)C(=O)OC[C@@H](NC(=O)c1cnc3ccccc3n1)C(=O)N[C@@H](C)C(=O)N2C` [Compound 1, Echinomycin] as the compound, how does the IC50 (MIA PaCa-2 cells) read?
A: Its IC50 is 0.75 ± 0.02 nM.

Q: And the CLint scaled ([1]; NADPH(+), read-out: Metabolic stability (CLint) Mouse NADPH(+))?
A: The CLint scaled was less than 69.8 mL/min/kg.

Q: What about the CLint scaled ([1]; NADPH(−), read-out: Metabolic stability (CLint) Mouse NADPH(−)) of the same compound?
A: Its CLint scaled is less than 69.8 mL/min/kg.

Q: What about the tumor growth (SW620 xenograft) of the same compound?
A: Its tumor growth is “significantly suppressed”.

Q: What about the CLint scaled ([2]; NADPH(+), read-out: Metabolic stability (CLint) Human NADPH(+)) of the same compound?
A: The CLint scaled was less than 22 mL/min/kg.

Q: What about the CLint scaled ([2]; NADPH(−), read-out: Metabolic stability (CLint) Human NADPH(−)) of the same compound?
A: Its CLint scaled is less than 22 mL/min/kg.

Q: What about the body weight ([3]; i.p. 0.04 and 0.4 µg/mouse, daily) of the same compound?
A: The body weight was “did not differ greatly from those of the control”.

Q: What about the “dose up to which no significant toxicity is shown” value ([3]; i.p. daily, body weight and blood examination) of the same compound?
A: The value was no less than 0.04 µg/mouse.
